Assays:
Assay in all cases: Tautomerase Activity Assay
[1] = molecular target: T1, Macrophage migration inhibitory factor (Homo sapiens, UniProt P14174)
T1 sequence (P14174 whole entry): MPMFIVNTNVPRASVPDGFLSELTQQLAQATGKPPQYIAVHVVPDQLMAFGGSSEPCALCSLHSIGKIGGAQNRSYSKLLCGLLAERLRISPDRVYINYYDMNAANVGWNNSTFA
Text: (§1) The tautomerase activity of MIFs was monitored by following the tautomerization of L-dopachrome methyl ester by the recombinant MIFs in the presence or absence of increasing concentrations of all six limonoids extracted from neem.

[2] = molecular target: T2, Macrophage migration inhibitory factor (Plasmodium falciparum (isolate 3D7), UniProt Q8I5C5)
T2 sequence (Q8I5C5 whole entry): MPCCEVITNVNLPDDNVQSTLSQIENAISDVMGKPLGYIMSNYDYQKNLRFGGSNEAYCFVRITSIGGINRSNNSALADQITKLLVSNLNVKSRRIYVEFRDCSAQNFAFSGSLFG
Text: as §1

[3] = molecular target: T3, Macrophage migration inhibitory factor-like protein (Plasmodium yoelii yoelii, UniProt Q1HEA2)
T3 sequence (Q1HEA2 whole entry): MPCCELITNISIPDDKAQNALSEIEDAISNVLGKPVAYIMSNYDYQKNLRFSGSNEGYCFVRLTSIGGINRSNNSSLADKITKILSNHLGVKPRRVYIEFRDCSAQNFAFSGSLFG
Text: as §1

SMILES	IC50 [1]	IC50 [2]	IC50 [3]
COC(=O)C[C@H]1[C@]2(C)C3=C(C)[C@H](c4ccoc4)C[C@H]3O[C@@H]2[C@H](OC(C)=O)[C@@H]2[C@]1(C)C(=O)C=C[C@@]2(C)C(=O)OC [Nimbin]	17.5 µM	22.5 µM	22.4 µM
CC(=O)O[C@@H]1C[C@H]2C(C)(C)C(=O)C=C[C@]2(C)[C@H]2CC[C@]3(C)C(=CC(=O)[C@H]3c3ccoc3)[C@@]21C [Azadiradione]	35.2 µM	45.6 µM	43 µM
C/C=C(\C)C(=O)O[C@H]1C[C@@H](OC(C)=O)[C@@]2(C)CO[C@H]3[C@H]4O[C@@H]5C[C@@H](c6ccoc6)C(C)=C5[C@@]4(C)[C@H](CC(=O)OC)[C@]1(C)[C@@H]32 [Salannin]	85.3 µM	89.5 µM	95.2 µM
CC(=O)O[C@@H]1C[C@H]2C(C)(C)C(=O)C=C[C@]2(C)[C@H]2CC[C@@]3(C)[C@H](c4ccoc4)C(=O)[C@H]4O[C@]43[C@@]21C [Epoxyazadiradione]		9.5 µM	9.8 µM

Reference: BindingDB's records for doi:10.1074/jbc.M112.341321 (Council of Scientific and Industrial Research (Csir) Indian …, 2012)
